{
  "source": "patent US20240189317A1",
  "about": "“ANTIVIRAL COMPOSITIONS AND METHODS” (AI Therapeutics, Inc., priority 2021, published 2024)",
  "test_system": "SARS-CoV-2 (USA-WA1/2020)",
  "format": "cell-based",
  "settings": "Caco-2 cells, vs DMSO controls",
  "note": "Like-named read-outs stand apart in the source and are kept apart here.",
  "data": [
    {"smiles": "Cc1cccc(/C=N/Nc2cc(N3CCOCC3)nc(OCCc3ccccn3)n2)c1", "note": "[Apilimod]", "values": [
      {"measurement": "Percent Infection (Exp 1)", "setting": "apilimod 31.25 nM single agent", "result": 93.632, "unit": "%"},
      {"measurement": "Percent Infection (Exp 2)", "setting": "apilimod 31.25 nM single agent", "result": 74.342, "unit": "%"},
      {"measurement": "Percent Infection (Exp 1)", "setting": "apilimod 62.5 nM single agent", "result": 75.308, "unit": "%"},
      {"measurement": "Percent Infection (Exp 2)", "setting": "apilimod 62.5 nM single agent", "result": 53.914, "unit": "%"},
      {"measurement": "Percent Infection (Exp 1)", "setting": "apilimod 125 nM single agent", "result": 35.618, "unit": "%"},
      {"measurement": "Percent Infection (Exp 2)", "setting": "apilimod 125 nM single agent", "result": 37.259, "unit": "%"},
      {"measurement": "Percent Infection (Exp 1)", "setting": "apilimod 250 nM single agent", "result": 11.935, "unit": "%"},
      {"measurement": "Percent Infection (Exp 2)", "setting": "apilimod 250 nM single agent", "result": 29.685, "unit": "%"},
      {"measurement": "Percent Infection (Exp 1)", "setting": "apilimod 500 nM single agent", "result": 12.267, "unit": "%"},
      {"measurement": "Percent Infection (Exp 2)", "setting": "apilimod 500 nM single agent", "result": 18.730, "unit": "%"},
      {"measurement": "Percent Infection (Exp 1)", "setting": "apilimod 1000 nM single agent", "result": 4.524, "unit": "%"},
      {"measurement": "Percent Infection (Exp 2)", "setting": "apilimod 1000 nM single agent", "result": 2.968, "unit": "%"},
      {"measurement": "Percent Infection (Exp 1)", "setting": "apilimod 2000 nM single agent", "result": 0.591, "unit": "%"},
      {"measurement": "Percent Infection (Exp 2)", "setting": "apilimod 2000 nM single agent", "result": 0.297, "unit": "%"}
    ]}
  ]
}
